We go through 77 compounds from the RepoRT retention time repository (doi:10.1021/acs.analchem.2c02893).

The series can be described thus: RP, Thermo Scientific Acclaim RSLC 120 C18, 100 × 2.1 mm, 2.2 µm, 30 °C, 0.2 mL/min, estimated dead time 1.1 min; A: 90% water + 10% methanol + 0.01% formic acid + 5 mM ammonium formate, pH 3.61; B: methanol + 0.01% formic acid + 5 mM ammonium formate, pH 3.61; gradient (min/%B) 0/1 1/1 2/39 13/99.9 15/99.9 15.1/1 20.1/1. Conditions: stereoisomer not certain.

In the case of `CC1(C)OC(c2ccco2)CN1C(=O)C(Cl)Cl` (configuration not stated) [Furilazole], the LC retention time is 7.92 min.
Consider `O=C(O)CCCO` [GHB Fragm 87], for which the LC retention time is 1.95 min.
With `NCC1(CC(=O)O)CCCCC1` [Gabapentin] the figure was 3.78 min; with `COc1ccc2c3c1OC1CC(O)C=CC31CCN(C)C2` (configuration not stated) [Galantamine], 2.99 min.
Consider `CC1COCc2cc3c(cc21)C(C)(C)C(C)C3(C)C` (configuration not stated) [Galaxolide], for which the LC retention time was 13.9 min.
On to `CC1COC(=O)c2cc3c(cc21)C(C)(C)C(C)C3(C)C` (configuration not stated) [Galaxolidone], for which the LC retention time is 12 min.
In the case of `COc1ccc(CCN(C)CCCC(C#N)(c2cc(OC)c(OC)c(OC)c2)C(C)C)cc1OC` (configuration not stated) [Gallopamil], the LC retention time is 7.19 min.
In the case of `CCCc1nn(C)c2c(=O)[nH]c(-c3cc(C(C)=O)ccc3OCC)nc12` [Gendenafil], the LC retention time is 9.81 min.
As to `O=c1c(-c2ccc(O)cc2)coc2cc(O)cc(O)c12` [Genistein], the LC retention time is 7.7 min.
With `CNC(C)C1CCC(N)C(OC2C(N)CC(N)C(OC3OCC(C)(O)C(NC)C3O)C2O)O1` (configuration not stated) [Gentamycin] the figure was 11.6 min.
With `C#CC1(O)C=CC2C3CCC4=CC(=O)CCC4C3CCC21CC` (configuration not stated) [Gestoden] the figure was 9.46 min; with `C=C1CC23CC1(O)CCC2C12C=CC(O)C(C)(C(=O)O1)C2C3C(=O)O` (configuration not stated) [Gibberellic acid], 4.91 min.
The same measure for `O=C(OCC(O)CO)c1ccccc1Nc1ccnc2cc(Cl)ccc12` (configuration not stated) [Glaphenine]: 6.63 min; for `COc1ccc(Cl)cc1C(=O)NCCc1ccc(S(=O)(=O)NC(=O)NC2CCCCC2)cc1` [Glibenclamide]: 9.98 min.
`Cc1ccc(S(=O)(=O)NC(=O)NC2C3CCC(C)(C2O)C3(C)C)cc1` (configuration not stated) [Glibornuride]: the LC retention time was 9.79 min.
With `CCC1=C(C)CN(C(=O)NCCc2ccc(S(=O)(=O)NC(=O)NC3CCC(C)CC3)cc2)C1=O` (configuration not stated) [Glimepiride] the figure was 10.7 min; with `Cc1cnc(C(=O)NCCc2ccc(S(=O)(=O)NC(=O)NC3CCCCC3)cc2)cn1` [Glipizide], 8.11 min.
Take `CP(=O)(O)CCC(N)C(=O)O` (configuration not stated) [Glufosinate]: the LC retention time was 1.44 min.
The same measure for `CN1C2CCCC1CC(NC(=O)c1nn(C)c3ccccc13)C2` (configuration not stated) [Granisetron]: 4.99 min; for `COC1=CC(=O)CC(C)C12Oc1c(Cl)c(OC)cc(OC)c1C2=O` (configuration not stated) [Griseofulvin]: 8.05 min; for `COc1ccccc1OCC(O)CO` (configuration not stated) [Guaifenesin]: 5.11 min.
As for `NC(N)=NN=Cc1c(Cl)cccc1Cl` [Guanabenz], the LC retention time was 5.61 min.
With `NC(N)=NCC1COc2ccccc2O1` (configuration not stated) [Guanoxan], the LC retention time was 4.57 min.
The same measure for `CNC(C)Cc1ccc(O)c(O)c1` (configuration not stated) [HHMA]: 2.59 min; for `NC(N)=NC(=O)c1nc(Cl)c(N2CCCCCC2)nc1N` [HMA]: 3.23 min; for `CNC(C)Cc1ccc(O)c(OC)c1` (configuration not stated) [HMMA]: 3.19 min.
With `CCCCCn1cc(C(=O)CC(C)(C)C(C)(C)O)c2ccccc21` [HTMPIPO-4] the figure was 11.6 min.
As to `CCCCCCC(C)(C)c1cc(O)c2c(c1)OC(C)(C)C1CC=C(CO)CC21` (configuration not stated) [HU-210], the LC retention time was 13.5 min.
Regarding `CC1(C)OC2CC3C4CCC5=CC(=O)CCC5(C)C4(F)C(O)CC3(C)C2(C(=O)CCl)O1` (configuration not stated) [Halcinonide], the LC retention time is 10.8 min.
On to `CC(C)(COCc1cccc(Oc2ccccc2)c1)c1ccc(OC(F)(F)Br)cc1` [Halfenprox], for which the LC retention time is 14.3 min.
As for `CC(C)(C)N(NC(=O)c1ccc(Cl)cc1)C(=O)c1ccccc1` [Halofenozide], the LC retention time is 9.25 min.
With `O=C(CC1NCCCC1O)Cn1cnc2cc(Br)c(Cl)cc2c1=O` (configuration not stated) [Halofuginone] the figure was 6.76 min; with `O=C(CCCN1CCC(O)(c2ccc(Cl)cc2)CC1)c1ccc(F)cc1` [Haloperidol], 7.18 min.
Turning to `CCOCCOC(=O)C(C)Oc1ccc(Oc2ncc(C(F)(F)F)cc2Cl)cc1` (configuration not stated) [Haloxyfop ethoxyethyl ester], the LC retention time was 12.2 min.
With `COc1ccc2c3c([nH]c2c1)C(C)=NCC3` [Harmaline] the figure was 5.06 min; with `COc1ccc2c(c1)[nH]c1c(C)nccc12` [Harmine], 5.34 min.
With `CC1(OC(=O)C=Cc2ccccc2)CC(O)C2(O)C=COC(OC3OC(CO)C(O)C(O)C3O)C12` (configuration not stated) [Harpagoside] the figure was 8.25 min.
Consider `COC(C)C(O)(C(=O)OCC1=CC[N+]2([O-])CCC(O)C12)C(C)C` (configuration not stated) [Heliotrine-N-oxide], for which the LC retention time was 3.49 min.
Consider `COC(C)C(O)(C(=O)OCC1=CCN2CCC(O)C12)C(C)C` (configuration not stated) [Heliotrine], for which the LC retention time was 4.27 min.
The same measure for `COP(=O)(OC)OC1=C(Cl)C2CC=CC12` (configuration not stated) [Heptenophos]: 8.49 min.
For the compound `CC(=O)Oc1ccc2c3c1OC1C(OC(C)=O)C=CC4C(C2)N(C)CCC341` (configuration not stated) [Heroin], the LC retention time was 4.63 min.
With `CCCCC(O)(Cn1cncn1)c1ccc(Cl)cc1Cl` (configuration not stated) [Hexaconazole], the LC retention time is 11.2 min.
For `CCCCCCCCCCCCCCCC[N+](C)(C)C` [Hexadecyltrimethylammonium], the LC retention time was 12.9 min.
The same measure for `O=C(NC(=O)c1c(F)cccc1F)Nc1cc(Cl)c(OC(F)(F)C(F)F)c(Cl)c1` [Hexaflumuron]: 11.8 min; for `CN(C)c1nc(=O)n(C2CCCCC2)c(=O)n1C` [Hexazinone]: 7.09 min.
For `COc1cc(C(=O)OCCCN(C)CCN(C)CCCOC(=O)c2cc(OC)c(OC)c(OC)c2)cc(OC)c1OC` [Hexobendine], the LC retention time is 7.54 min.
The same measure for `CC1C(c2ccc(Cl)cc2)SC(=O)N1C(=O)NC1CCCCC1` (configuration not stated) [Hexythiazox]: 12.6 min; for `c1ccc(CN(CCN2CCCC2)c2ccccc2)cc1` [Histapyrrodine]: 7.19 min.
The same measure for `CN1C2CCC1CC(OC(=O)C(O)c1ccccc1)C2` (configuration not stated) [Homatropine]: 3.73 min; for `CCCc1nn(C)c2c(=O)[nH]c(-c3cc(S(=O)(=O)N4CCN(CC)CC4)ccc3OCC)nc12` [HomoSildenafil]: 7.84 min.
The same measure for `CN(C)CCc1ccc(O)cc1` [Hordenine]: 2.28 min.
Consider `NS(=O)(=O)c1cc2c(cc1Cl)NCNS2(=O)=O` [Hydrochlorothiazide (NH4)], for which the LC retention time was 3.24 min.
The same measure for `COc1ccc2c3c1OC1C(=O)CCC4C(C2)N(C)CCC314` (configuration not stated) [Hydrocodone]: 3.69 min; for `CC(=O)OCC(=O)C1(O)CCC2C3CCC4=CC(=O)CCC4(C)C3C(O)CC21C` (configuration not stated) [Hydrocortisone 21-acetate]: 8.8 min; for `CN1CCC23c4c5ccc(O)c4OC2C(=O)CCC3C1C5` (configuration not stated) [Hydromorphone]: 2.91 min.
With `OCCOCCN1CCN(C(c2ccccc2)c2ccc(Cl)cc2)CC1` (configuration not stated) [Hydroxyzine] the figure was 8.28 min; with `CC(C(=O)O)c1ccc(CC(C)(C)O)cc1` (configuration not stated) [Ibuprofen- 2-Hydroxy], 7.08 min; with `CC(Cc1ccc(C(C)C(=O)O)cc1)C(=O)O` (configuration not stated) [Ibuprofen-Carboxy], 6.99 min.
The same measure for `O=P1(NCCCl)OCCCN1CCCl` (configuration not stated) [Ifosfamid]: 5.89 min.
Turning to `Cc1ccc(NC(=O)c2ccc(CN3CCN(C)CC3)cc2)cc1Nc1nccc(-c2cccnc2)n1` [Imatinib], the LC retention time is 6.6 min.
The same measure for `C=CCOC(Cn1ccnc1)c1ccc(Cl)cc1Cl` (configuration not stated) [Imazalil]: 9.09 min; for `COC(=O)c1ccc(C)cc1C1=NC(C)(C(C)C)C(=O)N1` (configuration not stated) [Imazamethabenz-methyl]: 7.16 min; for `COCc1cnc(C2=NC(C)(C(C)C)C(=O)N2)c(C(=O)O)c1` (configuration not stated) [Imazamox]: 4.63 min.
Turning to `CC(C)C1(C)N=C(c2ncccc2C(=O)O)NC1=O` (configuration not stated) [Imazapyr], the LC retention time is 4.1 min.
With `CC(C)C1(C)N=C(c2nc3ccccc3cc2C(=O)O)NC1=O` (configuration not stated) [Imazaquin] the figure was 6.1 min; with `CCc1cnc(C2=NC(C)(C(C)C)C(=O)N2)c(C(=O)O)c1` (configuration not stated) [Imazethapyr], 5.6 min.
With `COc1cc(OC)nc(NC(=O)NS(=O)(=O)c2c(Cl)nc3ccccn23)n1` [Imazosulfuron] the figure was 8.78 min; with `Clc1ccc(CSC(Cn2cncn2)=Nc2ccc(Cl)cc2Cl)cc1` [Imibenconazole], 12.4 min.
With `NC1=NCCN1Cc1ccc(Cl)nc1` [Imidacloprid-guanidine] the figure was 11 min; with `O=C1NCCN1Cc1ccc(Cl)nc1` [Imidacloprid-urea], 4.71 min; with `O=[N+]([O-])/N=C1\NCCN1Cc1ccc(Cl)nc1` [Imidacloprid], 4.76 min.
Take `CN1CCN(C)C1=O` [Imidazolidinon- 1-3-Dimethyl-2-]: the LC retention time is 3.53 min.
As for `O=C(Nc1cccc(C2=NCCN2)c1)Nc1cccc(C2=NCCN2)c1` [Imidocarb], the LC retention time was 3.78 min.
The same measure for `C1=Cc2ccccc2Nc2ccccc21` [Iminostilbene]: 10.1 min; for `CN(C)CCCN1c2ccccc2CCc2ccccc21` [Imipramine]: 8.08 min; for `O=C(Nc1ccc(Cl)cc1C(O)c1ccccc1)c1ccncc1` (configuration not stated) [Inabenfide]: 9.27 min.
With `CCc1cc2c(cc1CC)CC(NCC(O)c1ccc(O)c3[nH]c(=O)ccc13)C2` (configuration not stated) [Indacaterol] the figure was 7.9 min.
